Data reported in patent US5110725A, “Optical probe for the cytochrome P-450 cholesterol side chain cleavage enzyme” (The United States of America as represented by the United …, priority 1991, dated 1992).

Assays:
P-450scc enzyme [1] = target: T1, P-450scc enzyme (Gallus gallus, UniProt O13254); assay: Spectrofluorometry of resorufin production in mitochondrial preparations from chicken granulosa and MA-10 cells; assay type: biochemical; conditions: for effect of inhibitor on observed resorufin fluorescence: added to steroidogenic mitochondrial preparations incubated with the probe
T1 sequence (O13254 32-508): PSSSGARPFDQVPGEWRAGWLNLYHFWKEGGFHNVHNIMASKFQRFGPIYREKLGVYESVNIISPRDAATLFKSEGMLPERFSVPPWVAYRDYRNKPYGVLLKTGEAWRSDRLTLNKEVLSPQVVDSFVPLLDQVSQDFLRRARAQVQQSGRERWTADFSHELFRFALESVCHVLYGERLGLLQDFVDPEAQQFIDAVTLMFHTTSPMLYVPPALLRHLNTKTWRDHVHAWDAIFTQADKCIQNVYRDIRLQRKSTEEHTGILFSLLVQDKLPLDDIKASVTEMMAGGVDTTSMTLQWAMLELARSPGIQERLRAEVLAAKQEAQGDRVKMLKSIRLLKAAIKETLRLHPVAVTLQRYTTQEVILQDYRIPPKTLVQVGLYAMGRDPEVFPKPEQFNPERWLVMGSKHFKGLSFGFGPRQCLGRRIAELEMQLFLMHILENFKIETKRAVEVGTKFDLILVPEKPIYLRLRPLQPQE
Protocol: (§1) A saturated stock solution of probe 10 was made in 95% ethanol and filtered with a 0.2 μm filter to a concentration of 100 μM. Probe 10 was added at 1:50 or 1:100 dilutions to cell or mitochondria suspensions.
(§2) Cell Preparations: Granulosa cell layers were collected separately from the 5 largest preovulatory follicles of laying hens and cells were dispersed by collagenase digestion (Endocrinology 122:651-658). The cell concentration was adjusted to 1×10^6 cells/mL in modified medium 199 (no phenol red; added 25 mM HEPES, 0.35 g/L sodium bicarbonate, 100 mg/L 1-glutamate, and 1 g/L bovine serum albumin). The MA-10 cells (Endocrinology 108:88-95) were grown in RPMI-1640 medium supplemented with 15% horse serum and used three days after plating. Cell cultures of the Chinese hamster ovary (CHO) cell line were grown in spinner flasks with Ham's F-10 medium supplemented with 15% bovine calf serum. Media were obtained from Gibco BRL (Gaithersburg, Md.) and sera were obtained from HyClone Laboratories (Logan, Utah). Except where indicated all other reagents for cell preparations were obtained from Sigma Chemical Co. (St. Louis, Mo.). Cells in suspension (1×10^6 /mL) were kept on ice prior to use and at 37° C. during all incubations with probe 10.
(§3) Spectrofluorometry: Fluorescence emission measurements were obtained on a SPEX Fluorolog-II spectrofluorometer (SPEX Industries, Inc., Edison, N.J.) fitted with a thermostatted cuvette holder and interfaced to an IBM-AT computer for data collection and processing. Resorufin fluorescence was measured from 550-700 nm (8 nm slit width) with 530 nm excitation (10 nm slit width). Spectra were background-corrected by spectral subtraction of the initial (zero) time point. Samples were incubated at 37° C. during the experiment.

[2] = Fluorescence quantum efficiency relative to the resorufin anion; assay type: physicochemical; conditions: resorufin conjugated at C-22
Source text: Referring now to FIG. 2, the P-450scc probe 10 is a cholene-based steroid covalently conjugated at the C-22 position to resorufin. As a result of this conjugation the resorufin fluorescence is shifted and has a 40-fold lower quantum efficiency than the resorufin anion. Specificity of probe 10 for the P-450scc enzyme is achieved by incorporating known structural and stereochemical features to the cholene-ring for enzyme recognition. Generation of a fluorescent signal is obtained by release of the resorufin moiety 16 by the side chain cleavage enzyme.
Resorufin (7-hydroxy-3H-phenoxazin-3-one) was chosen as a fluorogenic reporter because of its advantageous spectral properties and its modest size. […] Presumably, metabolism of a resorufin ether 10 by P-450scc proceeds by hydroxylation at the C-1 position of the ether side chain, to yield a resorufin hemiacetal that undergoes cleavage to afford the highly fluorescent resorufin anion. The fluorescence signal generated by the formation of resorufin anion is a quantitative indicator of enzyme activity.

[3] = tested on: nonsteroidogenic CHO cells; assay: Spectrofluorometry with mitochondrial preparations from nonsteroidogenic CHO cells; assay type: biochemical, Chinese hamster
Protocol: as §1
as §2, with “Except where indicated all other reagents for cell preparations were obtained from Sigma Chemical Co. (St. Louis, Mo.). Cells in suspension (1×10^6 /mL) were kept on ice prior to use and at 37° C. during all incubations with probe 10.” left out
as §3, with “Spectra were background-corrected by spectral subtraction of the initial (zero) time point. Samples were incubated at 37° C. during the experiment.” left out

granulosa cells [4] = assay: Conventional two-laser flow cytometric analysis of P-450scc activity in granulosa cells; assay type: cell-based, laying hens; conditions: 37° C., 5 min to 2 h
Protocol: as §2
Uptake of the substrate (green fluorescence) plateaued at 30 minutes, presumably as the cells equilibrated with the P-450scc probe in solution.

[5] = assay type: physicochemical; conditions: 95% ethanol
Protocol: as §1

[6] = tested on: nonsteroidogenic CHO cells; assay: Fourier transform flow cytometry with nonsteroidogenic CHO cells; assay type: cell-based, Chinese hamster
Protocol: as §2
A single argon laser tuned to 514 nm was used to excite both the substrate and product. […]
(§4) By monitoring spectral changes in the cellular fluorescence at discrete time points from 30 min to 5 h with the FTCS-1 an increased metabolism of the substrate to the product resorufin was observed. […]

granulosa cells [7] = assay: Fourier transform flow cytometry of substrate metabolism in individual granulosa cells; assay type: cell-based, laying hens
Protocol: as §2, with “Except where indicated all other reagents for cell preparations were obtained from Sigma Chemical Co. (St. Louis, Mo.). Cells in suspension (1×10^6 /mL) were kept on ice prior to use and at 37° C. during all incubations with probe 10.” left out
The Fourier transform flow cytometer was used to track the metabolism of the fluorogenic substrate in individual granulosa cells. […] Using this instrument, cellular fluorescence of the substrate is resolved from the cellular fluorescence of the product, resorufin anion, based on their unique spectral characteristics during the uptake and metabolism of the P-450scc probe.
as §4

P-450scc = assay: Selectivity of the probe in intact mitochondria and cells; assay type: cell-based
Protocol: as §1

granulosa or MA-10 cells = assay: Progesterone radioimmunoassay after incubation of granulosa or MA-10 cells with the probe; assay type: cell-based; conditions: 3-5 h incubation, 1-2 μM probe
Protocol: as §2, with “Media were obtained from Gibco BRL (Gaithersburg, Md.) and sera were obtained from HyClone Laboratories (Logan, Utah). Except where indicated all other reagents for cell preparations were obtained from Sigma Chemical Co. (St. Louis, Mo.). Cells in suspension (1×10^6 /mL) were kept on ice prior to use and at 37° C. during all incubations with probe 10.” left out
To confirm cellular metabolism, both MA-10 and granulosa cell suspensions were incubated with varying concentrations of the probe substrate. Fluorescence emission was monitored at discrete times from 0-4 h. […] Based on the amount of fluorescence in a typical cell incubation the cumulative conversion of the probe was in the concentration range of 100-300 pM. After long (3-5 h) incubations of granulosa or MA-10 cells with a high concentration (1-2 μM) of the P-450scc probe, a two-fold accumulation of progesterone over the background progesterone content of the cells was measured by specific progesterone radioimmunoassay (Endocrine Sciences, Tarzana, Calif.).

P-450scc enzyme [8] = assay: Spectrofluorometry of probe metabolism in MA-10 and granulosa cell suspensions; assay type: cell-based
Protocol: as §1
Cell Preparations: Granulosa cell layers were collected separately from the 5 largest preovulatory follicles of laying hens and cells were dispersed by collagenase digestion (Endocrinology 122:651-658). The cell concentration was adjusted to 1×10^6 cells/mL in modified medium 199 (no phenol red; added 25 mM HEPES, 0.35 g/L sodium bicarbonate, 100 mg/L 1-glutamate, and 1 g/L bovine serum albumin). […]
as §3, with “Spectra were background-corrected by spectral subtraction of the initial (zero) time point. Samples were incubated at 37° C. during the experiment.” left out
To confirm cellular metabolism, both MA-10 and granulosa cell suspensions were incubated with varying concentrations of the probe substrate. Fluorescence emission was monitored at discrete times from 0-4 h. […] Based on the amount of fluorescence in a typical cell incubation the cumulative conversion of the probe was in the concentration range of 100-300 pM. […]

SMILES	effect of inhibitor on observed resorufin fluorescence (P-450scc enzyme [1])	quantum efficiency lower than the resorufin anion [2] [fold]	production of fluorescence [3]	product (red fluorescence) in cells during incubation (granulosa cells [4])	time at which uptake of the substrate (green fluorescence) plateaued (granulosa cells [4]) [min]	concentration of saturated stock solution [5] [µM]	resorufin production (P-450scc enzyme [1]; steroidogenic mitochondria (chicken granulosa, MA-10), 30 min to 5 h, substrate 0.01 to 2 μM)	cellular fluorescence spectrum ([6]; CHO cells, 3 h incubation)	metabolism of the substrate to resorufin ([6]; nonsteroidogenic CHO cells)	average ratio of the two fluorescent components (substrate and resorufin) over time (granulosa cells [7]; 30 min to 5 h)	alignment of the cell distribution with the product resorufin (granulosa cells [7]; after 5 h) [%]	selectivity (P-450scc)	accumulation of progesterone over background progesterone content of the cells (granulosa or MA-10 cells)	resorufin fluorescence over time (P-450scc enzyme [8]; MA-10 and granulosa cell suspensions, 0-4 h, varying probe concentrations)	cumulative conversion of the probe (P-450scc enzyme [8]; typical cell incubation, based on amount of fluorescence) [pM]
CC(=O)N1CCN(c2ccc(OCC3COC(Cn4ccnc4)(c4ccc(Cl)cc4Cl)O3)cc2)CC1 (stereo not shown) [ketoconazole]	attenuated the observed fluorescence														
C[C@H](COc1ccc2nc3ccc(=O)cc-3oc2c1)[C@H]1CC[C@H]2[C@@H]3CC=C4C[C@@H](O)CC[C@]4(C)[C@H]3CC[C@]12C [probe 10, 22-phenoxazonoxy-5-cholene-3β-ol]		40	no production of fluorescence	continued to increase	30	100	resorufin production was observed	remained primarily consistent with the substrate spectrum	no evidence of significant metabolism	linear increase	~100	selective for P-450scc activity	two-fold	linear increase in resorufin fluorescence	100 to 300
CCC1(c2ccc(N)cc2)CCC(=O)NC1=O (stereo not shown) [aminoglutethimide]	attenuated the observed fluorescence														
